Source: patent publication US12441726B2, “Compounds and uses thereof” (Foghorn Therapeutics Inc., priority 2020, dated 2025)

biological target: BRM (Homo sapiens, UniProt P51531); experiment: ATPase catalytic activity assay (ADP-Glo), BRM; details: 30 nM BRM, 400 μM ATP
Sequence (P51531 whole entry): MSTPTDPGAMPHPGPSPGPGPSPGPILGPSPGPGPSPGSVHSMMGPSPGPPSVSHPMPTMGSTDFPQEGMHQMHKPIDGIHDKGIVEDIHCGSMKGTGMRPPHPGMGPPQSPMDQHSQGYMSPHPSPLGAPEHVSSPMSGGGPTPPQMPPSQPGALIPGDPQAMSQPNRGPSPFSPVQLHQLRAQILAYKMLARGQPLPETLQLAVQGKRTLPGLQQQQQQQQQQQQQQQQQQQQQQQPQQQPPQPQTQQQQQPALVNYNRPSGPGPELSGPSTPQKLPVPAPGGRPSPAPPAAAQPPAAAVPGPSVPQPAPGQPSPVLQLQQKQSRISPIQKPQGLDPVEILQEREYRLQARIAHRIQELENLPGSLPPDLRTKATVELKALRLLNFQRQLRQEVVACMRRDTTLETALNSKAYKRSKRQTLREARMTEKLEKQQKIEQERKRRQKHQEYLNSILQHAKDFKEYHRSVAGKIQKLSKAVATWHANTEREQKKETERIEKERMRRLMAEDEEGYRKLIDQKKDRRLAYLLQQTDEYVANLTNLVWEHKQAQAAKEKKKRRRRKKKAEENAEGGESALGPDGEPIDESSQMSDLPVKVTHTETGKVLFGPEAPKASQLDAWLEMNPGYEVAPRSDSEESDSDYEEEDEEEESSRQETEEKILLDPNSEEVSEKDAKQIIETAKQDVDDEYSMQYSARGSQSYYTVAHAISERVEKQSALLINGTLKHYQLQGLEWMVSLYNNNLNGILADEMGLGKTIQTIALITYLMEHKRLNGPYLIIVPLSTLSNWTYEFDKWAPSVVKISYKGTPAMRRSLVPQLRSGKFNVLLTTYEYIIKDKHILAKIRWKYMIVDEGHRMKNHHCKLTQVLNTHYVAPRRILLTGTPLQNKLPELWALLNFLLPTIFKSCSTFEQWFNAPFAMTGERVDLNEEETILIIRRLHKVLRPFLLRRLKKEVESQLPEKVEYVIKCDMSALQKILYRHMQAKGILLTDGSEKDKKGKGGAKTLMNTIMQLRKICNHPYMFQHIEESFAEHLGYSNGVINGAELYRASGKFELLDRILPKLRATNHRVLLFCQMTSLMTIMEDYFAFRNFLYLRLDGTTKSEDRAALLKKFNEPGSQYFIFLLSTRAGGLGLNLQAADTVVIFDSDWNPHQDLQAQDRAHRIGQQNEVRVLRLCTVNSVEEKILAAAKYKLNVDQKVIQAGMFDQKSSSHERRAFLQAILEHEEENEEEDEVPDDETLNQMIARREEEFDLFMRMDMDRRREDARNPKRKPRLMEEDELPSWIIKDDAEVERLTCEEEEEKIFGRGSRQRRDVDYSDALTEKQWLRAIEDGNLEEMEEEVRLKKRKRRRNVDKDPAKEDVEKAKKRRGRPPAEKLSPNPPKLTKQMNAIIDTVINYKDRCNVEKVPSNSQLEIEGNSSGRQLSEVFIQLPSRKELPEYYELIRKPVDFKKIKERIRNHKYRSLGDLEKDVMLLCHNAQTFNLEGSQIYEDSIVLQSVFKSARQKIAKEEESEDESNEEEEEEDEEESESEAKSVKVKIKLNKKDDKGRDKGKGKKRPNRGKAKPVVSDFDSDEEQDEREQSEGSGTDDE

Row | SMILES | BRM Max % Inhibition
1 | C[C@@]1(C#N)COCc2ccc(C(=O)NCc3cc4nc(-c5cccc(N6CCOCC6)n5)ccc4cn3)cc21 [Compound 373] | 103%
2 | C[C@@]1(C#N)COCc2ccc(C(=O)NCc3cc4c(cn3)CCN(c3ccnc(N5CCOCC5)n3)C4)cc21 [Compound 330] | 93%
3 | C[C@@]1(C#N)COCc2ccc(C(=O)NCc3cc(OCc4cccc(N5CCC5)c4)ccn3)cc21 [Compound 40] | 96%
4 | C[C@@]1(C#N)COCc2ccc(C(=O)NCc3cc(/C(F)=C(\F)c4ccccc4)ccn3)cc21 [Compound 9] | 95%
5 | COc1nn(C)cc1-c1ccc2cnc(CNC(=O)c3ccc4c(c3)[C@](C)(C#N)COC4)cc2n1 [Compound 454] | 97%
6 | COc1nn(C)cc1-c1cnc2cnc(CNC(=O)c3ccc4c(c3)[C@](C)(F)COC4)cc2n1 [Compound 161] | 94%
7 | C[C@@]1(C#N)COCc2ncc(C(=O)NCc3cc4nc(-c5cncc(C6CC6)n5)ccc4cn3)cc21 [Compound 221] | 99%
8 | COC1CCN(c2nccc(-c3ccc4cnc(CNC(=O)c5ccc6c(c5)[C@](C)(C#N)COC6)cc4n3)n2)C1 (stereo partly drawn) [Compound 422] | 99%
9 | Cn1ccc2ccc(-c3ccc4cnc(CNC(=O)c5ccc6c(c5)[C@](C)(C#N)COC6)cc4n3)nc2c1=O [Compound 196] | 86%
10 | COc1nn(C2CC2)cc1-c1ccc2cnc(CNC(=O)c3ccc4c(c3)[C@](C)(C#N)COC4)cc2n1 [Compound 225] | 92%
11 | COc1nn(C)cc1-c1nc2cc(CNC(=O)c3ccc4c(c3)[C@](C)(C#N)COC4)ncc2s1 [Compound 274] | 93%
12 | Cn1ncc2c1CN(c1ccc3cnc(CNC(=O)c4ccc5c(c4)[C@](C)(C#N)COC5)cc3n1)C2 [Compound 461] | 93%
13 | COc1ccccc1N1CCc2cnc(CNC(=O)c3ccc4c(c3)[C@](C)(C#N)COC4)cc2C1 [Compound 250] | 87%
14 | CC1(c2nccc(-c3ccc4cnc(CNC(=O)c5ccc6c(c5)[C@](C)(C#N)COC6)cc4n3)n2)COC1 [Compound 137] | 88%
15 | C[C@@]1(F)COCc2ccc(C(=O)NCc3cc4cc(-c5cncc(N6CCC6)n5)ccc4cn3)cc21 [Compound 370] | 103%
16 | CN1Cc2cc(-c3ccc4cnc(CNC(=O)c5ccc6c(c5)[C@](C)(C#N)COC6)cc4n3)ccc2C1=O [Compound 495] | 99%
17 | C[C@@]1(C#N)COCc2ccc(C(=O)NCc3cc4nc(C5CC5)ccc4cn3)cc21 [Compound 94] | 83%
18 | C[C@@]1(F)COCc2ccc(C(=O)NCc3cc4nc(-c5cccc(C6CC6)n5)ccc4nn3)cc21 [Compound 240] | 101%

same assay, conditions: BRM ATPase: IC50 (uM), 30 nM BRM, 400 μM ATP

Row | SMILES | IC50
19 | C[C@@]1(C#N)COCc2ccc(C(=O)NCc3cc4nc(-c5cccc(N6CCOCC6)n5)ccc4cn3)cc21 [Compound 373] | < 0.1 µM
20 | C[C@@]1(C#N)COCc2ccc(C(=O)NCc3cc4c(cn3)CCN(c3ccnc(N5CCOCC5)n3)C4)cc21 [Compound 330] | 0.1 to 0.5 µM
21 | C[C@@]1(C#N)COCc2ccc(C(=O)NCc3cc(OCc4cccc(N5CCC5)c4)ccn3)cc21 [Compound 40] | 0.1 to 0.5 µM
22 | C[C@@]1(C#N)COCc2ccc(C(=O)NCc3cc(/C(F)=C(\F)c4ccccc4)ccn3)cc21 [Compound 9] | 0.1 to 0.5 µM
23 | COc1nn(C)cc1-c1ccc2cnc(CNC(=O)c3ccc4c(c3)[C@](C)(C#N)COC4)cc2n1 [Compound 454] | < 0.1 µM
24 | COc1nn(C)cc1-c1cnc2cnc(CNC(=O)c3ccc4c(c3)[C@](C)(F)COC4)cc2n1 [Compound 161] | 0.1 to 0.5 µM
25 | C[C@@]1(C#N)COCc2ncc(C(=O)NCc3cc4nc(-c5cncc(C6CC6)n5)ccc4cn3)cc21 [Compound 221] | < 0.1 µM
26 | COC1CCN(c2nccc(-c3ccc4cnc(CNC(=O)c5ccc6c(c5)[C@](C)(C#N)COC6)cc4n3)n2)C1 (stereo partly drawn) [Compound 422] | < 0.1 µM
27 | Cn1ccc2ccc(-c3ccc4cnc(CNC(=O)c5ccc6c(c5)[C@](C)(C#N)COC6)cc4n3)nc2c1=O [Compound 196] | 0.1 to 0.5 µM
28 | COc1nn(C2CC2)cc1-c1ccc2cnc(CNC(=O)c3ccc4c(c3)[C@](C)(C#N)COC4)cc2n1 [Compound 225] | 0.1 to 0.5 µM
29 | COc1nn(C)cc1-c1nc2cc(CNC(=O)c3ccc4c(c3)[C@](C)(C#N)COC4)ncc2s1 [Compound 274] | 0.1 to 0.5 µM
30 | Cn1ncc2c1CN(c1ccc3cnc(CNC(=O)c4ccc5c(c4)[C@](C)(C#N)COC5)cc3n1)C2 [Compound 461] | 0.1 to 0.5 µM
31 | COc1ccccc1N1CCc2cnc(CNC(=O)c3ccc4c(c3)[C@](C)(C#N)COC4)cc2C1 [Compound 250] | 0.1 to 0.5 µM
32 | CC1(c2nccc(-c3ccc4cnc(CNC(=O)c5ccc6c(c5)[C@](C)(C#N)COC6)cc4n3)n2)COC1 [Compound 137] | 0.1 to 0.5 µM
33 | C[C@@]1(F)COCc2ccc(C(=O)NCc3cc4cc(-c5cncc(N6CCC6)n5)ccc4cn3)cc21 [Compound 370] | < 0.1 µM
34 | CN1Cc2cc(-c3ccc4cnc(CNC(=O)c5ccc6c(c5)[C@](C)(C#N)COC6)cc4n3)ccc2C1=O [Compound 495] | < 0.1 µM
35 | C[C@@]1(C#N)COCc2ccc(C(=O)NCc3cc4nc(C5CC5)ccc4cn3)cc21 [Compound 94] | > 1 µM
36 | C[C@@]1(F)COCc2ccc(C(=O)NCc3cc4nc(-c5cccc(C6CC6)n5)ccc4nn3)cc21 [Compound 240] | < 0.1 µM

biological target: BRG-1 (Homo sapiens, UniProt P51532); experiment: ATPase catalytic activity assay (ADP-Glo), BRG-1; details: not given
Sequence (P51532 whole entry): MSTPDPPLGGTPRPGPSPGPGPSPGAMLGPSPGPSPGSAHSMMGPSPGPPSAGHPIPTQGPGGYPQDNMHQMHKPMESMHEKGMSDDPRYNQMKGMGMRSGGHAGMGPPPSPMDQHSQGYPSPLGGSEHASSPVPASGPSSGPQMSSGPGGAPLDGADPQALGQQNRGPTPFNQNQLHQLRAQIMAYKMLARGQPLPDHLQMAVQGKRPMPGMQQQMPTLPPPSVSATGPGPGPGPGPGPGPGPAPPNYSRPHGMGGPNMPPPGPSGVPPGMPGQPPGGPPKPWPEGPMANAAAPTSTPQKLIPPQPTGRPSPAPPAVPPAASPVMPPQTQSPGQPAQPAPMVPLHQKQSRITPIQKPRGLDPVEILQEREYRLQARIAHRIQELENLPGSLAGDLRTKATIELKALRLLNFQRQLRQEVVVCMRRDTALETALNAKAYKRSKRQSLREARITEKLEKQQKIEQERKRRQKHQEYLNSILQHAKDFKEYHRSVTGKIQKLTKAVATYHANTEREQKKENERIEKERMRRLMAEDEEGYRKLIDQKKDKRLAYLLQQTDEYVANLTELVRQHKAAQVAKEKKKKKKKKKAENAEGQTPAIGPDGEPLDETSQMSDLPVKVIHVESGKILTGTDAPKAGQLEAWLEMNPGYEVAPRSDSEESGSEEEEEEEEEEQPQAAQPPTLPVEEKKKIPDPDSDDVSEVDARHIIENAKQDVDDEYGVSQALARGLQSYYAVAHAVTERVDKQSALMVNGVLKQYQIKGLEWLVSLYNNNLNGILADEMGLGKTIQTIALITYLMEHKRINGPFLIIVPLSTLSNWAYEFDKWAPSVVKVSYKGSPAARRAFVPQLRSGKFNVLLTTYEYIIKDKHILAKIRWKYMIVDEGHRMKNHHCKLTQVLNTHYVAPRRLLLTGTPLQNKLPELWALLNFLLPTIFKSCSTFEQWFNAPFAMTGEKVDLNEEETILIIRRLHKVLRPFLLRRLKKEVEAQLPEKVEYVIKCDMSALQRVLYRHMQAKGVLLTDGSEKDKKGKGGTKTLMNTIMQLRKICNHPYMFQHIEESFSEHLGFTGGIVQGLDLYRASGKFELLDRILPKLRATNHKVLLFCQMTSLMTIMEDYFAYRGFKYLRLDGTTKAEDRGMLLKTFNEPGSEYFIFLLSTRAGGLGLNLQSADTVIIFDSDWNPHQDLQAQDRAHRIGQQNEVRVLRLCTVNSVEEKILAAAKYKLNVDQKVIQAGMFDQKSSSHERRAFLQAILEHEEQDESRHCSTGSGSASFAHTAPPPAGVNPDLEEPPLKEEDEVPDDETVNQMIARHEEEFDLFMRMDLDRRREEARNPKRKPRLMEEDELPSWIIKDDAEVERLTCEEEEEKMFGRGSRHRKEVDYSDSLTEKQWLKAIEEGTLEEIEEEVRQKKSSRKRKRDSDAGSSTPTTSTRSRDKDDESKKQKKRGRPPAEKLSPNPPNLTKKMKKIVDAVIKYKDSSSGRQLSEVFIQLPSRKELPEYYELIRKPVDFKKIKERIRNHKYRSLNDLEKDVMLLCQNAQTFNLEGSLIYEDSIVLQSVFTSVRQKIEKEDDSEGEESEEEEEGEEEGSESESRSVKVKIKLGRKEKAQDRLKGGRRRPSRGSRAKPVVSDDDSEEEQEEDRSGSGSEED

Row | SMILES | IC50
37 | C[C@@]1(C#N)COCc2ccc(C(=O)NCc3cc4nc(-c5cccc(N6CCOCC6)n5)ccc4cn3)cc21 [Compound 373] | < 100 nM
38 | C[C@@]1(C#N)COCc2ccc(C(=O)NCc3cc4c(cn3)CCN(c3ccnc(N5CCOCC5)n3)C4)cc21 [Compound 330] | 500 to 1000 nM
39 | C[C@@]1(C#N)COCc2ccc(C(=O)NCc3cc(OCc4cccc(N5CCC5)c4)ccn3)cc21 [Compound 40] | > 1000 nM
40 | C[C@@]1(C#N)COCc2ccc(C(=O)NCc3cc(/C(F)=C(\F)c4ccccc4)ccn3)cc21 [Compound 9] | > 1000 nM
41 | COc1nn(C)cc1-c1ccc2cnc(CNC(=O)c3ccc4c(c3)[C@](C)(C#N)COC4)cc2n1 [Compound 454] | 100 to 500 nM
42 | COc1nn(C)cc1-c1cnc2cnc(CNC(=O)c3ccc4c(c3)[C@](C)(F)COC4)cc2n1 [Compound 161] | 500 to 1000 nM
43 | C[C@@]1(C#N)COCc2ncc(C(=O)NCc3cc4nc(-c5cncc(C6CC6)n5)ccc4cn3)cc21 [Compound 221] | 100 to 500 nM
44 | COC1CCN(c2nccc(-c3ccc4cnc(CNC(=O)c5ccc6c(c5)[C@](C)(C#N)COC6)cc4n3)n2)C1 (stereo partly drawn) [Compound 422] | < 100 nM
45 | Cn1ccc2ccc(-c3ccc4cnc(CNC(=O)c5ccc6c(c5)[C@](C)(C#N)COC6)cc4n3)nc2c1=O [Compound 196] | > 1000 nM
46 | COc1nn(C2CC2)cc1-c1ccc2cnc(CNC(=O)c3ccc4c(c3)[C@](C)(C#N)COC4)cc2n1 [Compound 225] | 500 to 1000 nM
47 | COc1nn(C)cc1-c1nc2cc(CNC(=O)c3ccc4c(c3)[C@](C)(C#N)COC4)ncc2s1 [Compound 274] | 500 to 1000 nM
48 | Cn1ncc2c1CN(c1ccc3cnc(CNC(=O)c4ccc5c(c4)[C@](C)(C#N)COC5)cc3n1)C2 [Compound 461] | 500 to 1000 nM
49 | COc1ccccc1N1CCc2cnc(CNC(=O)c3ccc4c(c3)[C@](C)(C#N)COC4)cc2C1 [Compound 250] | > 1000 nM
50 | CC1(c2nccc(-c3ccc4cnc(CNC(=O)c5ccc6c(c5)[C@](C)(C#N)COC6)cc4n3)n2)COC1 [Compound 137] | > 1000 nM
51 | C[C@@]1(F)COCc2ccc(C(=O)NCc3cc4cc(-c5cncc(N6CCC6)n5)ccc4cn3)cc21 [Compound 370] | 100 to 500 nM
52 | CN1Cc2cc(-c3ccc4cnc(CNC(=O)c5ccc6c(c5)[C@](C)(C#N)COC6)cc4n3)ccc2C1=O [Compound 495] | 100 to 500 nM
53 | C[C@@]1(C#N)COCc2ccc(C(=O)NCc3cc4nc(C5CC5)ccc4cn3)cc21 [Compound 94] | > 1000 nM
54 | C[C@@]1(F)COCc2ccc(C(=O)NCc3cc4nc(-c5cccc(C6CC6)n5)ccc4nn3)cc21 [Compound 240] | 100 to 500 nM

same assay, conditions: 1 h, read-out: BRG1 Max % Inhibition, ADP-Glo, 30 nM BRG-1, 400 μM ATP

Row | SMILES | Emax
55 | C[C@@]1(C#N)COCc2ccc(C(=O)NCc3cc4nc(-c5cccc(N6CCOCC6)n5)ccc4cn3)cc21 [Compound 373] | 100%
56 | C[C@@]1(C#N)COCc2ccc(C(=O)NCc3cc4c(cn3)CCN(c3ccnc(N5CCOCC5)n3)C4)cc21 [Compound 330] | 64%
57 | C[C@@]1(C#N)COCc2ccc(C(=O)NCc3cc(OCc4cccc(N5CCC5)c4)ccn3)cc21 [Compound 40] | 67%
58 | C[C@@]1(C#N)COCc2ccc(C(=O)NCc3cc(/C(F)=C(\F)c4ccccc4)ccn3)cc21 [Compound 9] | 56%
59 | COc1nn(C)cc1-c1ccc2cnc(CNC(=O)c3ccc4c(c3)[C@](C)(C#N)COC4)cc2n1 [Compound 454] | 88%
60 | COc1nn(C)cc1-c1cnc2cnc(CNC(=O)c3ccc4c(c3)[C@](C)(F)COC4)cc2n1 [Compound 161] | 53%
61 | C[C@@]1(C#N)COCc2ncc(C(=O)NCc3cc4nc(-c5cncc(C6CC6)n5)ccc4cn3)cc21 [Compound 221] | 88%
62 | COC1CCN(c2nccc(-c3ccc4cnc(CNC(=O)c5ccc6c(c5)[C@](C)(C#N)COC6)cc4n3)n2)C1 (stereo partly drawn) [Compound 422] | 97%
63 | Cn1ccc2ccc(-c3ccc4cnc(CNC(=O)c5ccc6c(c5)[C@](C)(C#N)COC6)cc4n3)nc2c1=O [Compound 196] | 59%
64 | COc1nn(C2CC2)cc1-c1ccc2cnc(CNC(=O)c3ccc4c(c3)[C@](C)(C#N)COC4)cc2n1 [Compound 225] | 72%
65 | COc1nn(C)cc1-c1nc2cc(CNC(=O)c3ccc4c(c3)[C@](C)(C#N)COC4)ncc2s1 [Compound 274] | 45%
66 | Cn1ncc2c1CN(c1ccc3cnc(CNC(=O)c4ccc5c(c4)[C@](C)(C#N)COC5)cc3n1)C2 [Compound 461] | 65%
67 | COc1ccccc1N1CCc2cnc(CNC(=O)c3ccc4c(c3)[C@](C)(C#N)COC4)cc2C1 [Compound 250] | 25%
68 | CC1(c2nccc(-c3ccc4cnc(CNC(=O)c5ccc6c(c5)[C@](C)(C#N)COC6)cc4n3)n2)COC1 [Compound 137] | 39%
69 | C[C@@]1(F)COCc2ccc(C(=O)NCc3cc4cc(-c5cncc(N6CCC6)n5)ccc4cn3)cc21 [Compound 370] | 96%
70 | CN1Cc2cc(-c3ccc4cnc(CNC(=O)c5ccc6c(c5)[C@](C)(C#N)COC6)cc4n3)ccc2C1=O [Compound 495] | 88%
71 | C[C@@]1(C#N)COCc2ccc(C(=O)NCc3cc4nc(C5CC5)ccc4cn3)cc21 [Compound 94] | 45%
72 | C[C@@]1(F)COCc2ccc(C(=O)NCc3cc4nc(-c5cccc(C6CC6)n5)ccc4nn3)cc21 [Compound 240] | 89%
